Data from patent publication US10280169B2, “Biaryl bruton's tyrosine kinase inhibitors” (BIOGEN MA INC., priority 2013, dated 2019).

Columns and labels:
pBTK = target: T1, pBTK (Homo sapiens, UniProt Q06187); test: In vitro PD assay in whole blood (pBTK assay); assay type: cell-based; conditions: 30 min at 37° C.
T1 construct: Heparinized venous blood was purchased from Bioreclamation, Inc. or SeraCare Life Sciences; tissue Bioreclamation, Inc. or SeraCare Life Sciences; host or cells: heparinized venous whole blood
Experimental: Heparinized venous blood was purchased from Bioreclamation, Inc. or SeraCare Life Sciences and shipped overnight. Whole blood was aliquoted into 96-well plate and “spiked” with serial dilutions of test compound in DMSO or with DMSO without drug. The final concentration of DMSO in all wells was 0.1%. The plate was incubated at 37° C. for 30 min. Lysis buffer containing protease and phosphatase inhibitors was added to the drug-containing samples and one of the DMSO-only samples (+PPi, high control), while lysis buffer containing protease inhibitors was added to the other DMSO-only samples (−PPi, low control). All of the lysed whole blood samples were subjected to the total BTK capture and phosphotyrosine detection method described in Example 30. ECL values were graphed in Prism and a best-fit curve with restrictions on the maximum and minimum defined by the +PPi high and −PPi low controls was used to estimate the test compound concentration that results in 50% inhibition of ECL signal by interpolation.
In some instances where a compound tested has activity “D”, other structurally similar compounds beyond the measurable limits of the assay are not included in Table 2.

BTK = target: T2, BTK (Homo sapiens, UniProt Q06187); test: In vitro BTK kinase assay: BTK-POLYGAT-LS assay; assay type: biochemical; conditions: 10 uM ATP, read-out: IC50 (10 uMATP)
T2 construct: purchased Upstate 14-552
T2 sequence (Q06187 whole entry): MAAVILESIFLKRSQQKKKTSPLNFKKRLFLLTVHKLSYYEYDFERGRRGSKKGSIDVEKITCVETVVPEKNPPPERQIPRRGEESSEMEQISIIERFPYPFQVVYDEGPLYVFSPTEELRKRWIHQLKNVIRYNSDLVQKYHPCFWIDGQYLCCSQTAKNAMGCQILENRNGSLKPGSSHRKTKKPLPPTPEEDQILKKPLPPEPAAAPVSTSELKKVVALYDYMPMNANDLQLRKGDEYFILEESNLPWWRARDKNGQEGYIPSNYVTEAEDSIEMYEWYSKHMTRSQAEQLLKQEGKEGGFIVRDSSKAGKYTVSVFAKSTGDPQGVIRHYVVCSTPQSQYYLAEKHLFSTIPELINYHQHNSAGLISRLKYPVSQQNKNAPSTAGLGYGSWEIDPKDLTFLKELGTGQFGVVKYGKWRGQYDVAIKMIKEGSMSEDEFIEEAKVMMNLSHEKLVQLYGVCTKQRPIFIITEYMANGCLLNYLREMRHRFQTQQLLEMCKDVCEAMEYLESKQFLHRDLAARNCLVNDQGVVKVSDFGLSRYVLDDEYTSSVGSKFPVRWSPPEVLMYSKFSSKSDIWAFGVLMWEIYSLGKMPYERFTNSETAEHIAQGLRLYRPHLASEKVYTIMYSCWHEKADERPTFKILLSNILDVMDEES

T1 sequence (Q06187 whole entry): as above

Row | IC50 (pBTK) [µM] | IC50 (BTK) [µM] | Compound
1 | 1.5 to 10 | < 0.01 | Cc1cc(-c2ncnc3cc[nH]c23)ccc1CNC(=O)c1cc2c(s1)CCCC2 [Example I-116, N-(2-methyl-4-(5H-pyrrolo[3,2-d]pyrimidin-4-yl)benzyl)-4,5,6,7-tetrahydrobenzo[b]thiophene-2-carboxamide]
2 | < 0.5 | < 0.01 | Cc1cc(-c2ncnc3[nH]c(-c4cnn(C)c4)cc23)ccc1C(C)NC(=O)c1cnc(C(C)(C)C)s1 (centres unmarked) [Example I-112, 2-(tert-butyl)-N-(1-(2-methyl-4-(6-(1-methyl-1H-pyrazol-4-yl)-7H-pyrrolo[2,3-d]pyrimidin-4-yl)phenyl)ethyl)thiazole-5-carboxamide]
3 | 0.5 to 1.5 | < 0.01 | Cn1cc(-c2cc3c(-c4ccc5c(c4)CCCC5NC(=O)c4cc5c(s4)CCOC5)ncnc3[nH]2)cn1 (centres unmarked) [Example I-35, N-(6-(6-(1-methyl-1H-pyrazol-4-yl)-7H-pyrrolo[2,3-d]pyrimidin-4-yl)-1,2,3,4-tetrahydronaphthalen-1-yl)-6,7-dihydro-4H-thieno[3,2-c]pyran-2-carboxamide]
4 | 1.5 to 10 | < 0.01 | Cc1cc(-c2ncnc3[nH]ncc23)ccc1CNC(=O)c1cc2c(s1)CCCC2 [Example I-85, N-(2-methyl-4-(1H-pyrazolo[3,4-d]pyrimidin-4-yl)benzyl)-4,5,6,7-tetrahydrobenzo[b]thiophene-2-carboxamide]
5 | < 0.5 | < 0.01 | Cc1cc(-c2ncnc3[nH]c(-c4cnn(C)c4)cc23)ccc1C(CO)NC(=O)c1cc2c(s1)CCOC2 (centres unmarked) [Example I-32, N-(2-hydroxy-1-(2-methyl-4-(6-(1-methyl-1H-pyrazol-4-yl)-7H-pyrrolo[2,3-d]pyrimidin-4-yl)phenyl)ethyl)-6,7-dihydro-4H-thieno[3,2-c]pyran-2-carboxamide]
6 | < 0.5 | < 0.01 | Cc1cc(-c2ncnc3nc(N4CCOCC4)[nH]c23)ccc1CNC(=O)c1cnc(C(C)(C)C)s1 [Example I-48, 2-(tert-butyl)-N-(2-methyl-4-(8-morpholino-7H-purin-6-yl)benzyl)thiazole-5-carboxamide]
7 | < 0.5 | < 0.01 | Cc1cc(-c2ncnc3cc(C4=CCS(=O)(=O)CC4)[nH]c23)ccc1CNC(=O)c1cnc(C(C)(C)C)s1 [Example I-22, 2-(tert-butyl)-N-(4-(6-(1,1-dioxido-3,6-dihydro-2H-thiopyran-4-yl)-5H-pyrrolo[3,2-d]pyrimidin-4-yl)-2-methylbenzyl)thiazole-5-carboxamide]
8 | < 0.5 | < 0.01 | Cc1cc(-c2ncnc3cc(-c4cn(C)nc4C)[nH]c23)ccc1CNC(=O)c1cnc(C(C)(C)C)s1 [Example I-39, 2-(tert-butyl)-N-(4-(6-(1,3-dimethyl-1H-pyrazol-4-yl)-5H-pyrrolo[3,2-d]pyrimidin-4-yl)-2-methylbenzyl)thiazole-5-carboxamide]
9 | 1.5 to 10 | < 0.01 | O=C(N[C@H]1CCCc2cc(-c3ncnc4[nH]ncc34)ccc21)c1cc2c(s1)CCCC2 [Example I-87, (S)—N-(6-(1H-Pyrazolo[3,4-d]pyrimidin-4-yl)-1,2,3,4-tetrahydronaphthalen-1-yl)-4,5,6,7-tetrahydrobenzo[b]thiophene-2-carboxamide]
10 | < 0.5 | < 0.01 | Cc1cc(-c2ncnc3cc(-c4cnn(C)c4)[nH]c23)ccc1CNC(=O)c1cc2c(s1)CCOC2 [Example I-42, N-(2-methyl-4-(6-(1-methyl-1H-pyrazol-4-yl)-5H-pyrrolo[3,2-d]pyrimidin-4-yl)benzyl)-6,7-dihydro-4H-thieno[3,2-c]pyran-2-carboxamide]
